The results in this text go back to US20190055231A1, “BACE1 INHIBITORS” (Hoffmann-La Roche Inc., priority 2016, published 2019).

Data set [1] can be described thus: Cynomolgus monkey single dose PK study. In kind it is in vivo, Cynomolgus monkey (Macacaca fascicularis). An excerpt:
Cynomolgus Monkey (Macacaca fascicularis) Single Dose PK Study and Plasma Aβ40 Determination
Blood and plasma collection will always be performed in the treatment cage. The animal care keeper grabs either one arm or one leg through the bars. The hairs are shaved for better visibility of the vein. The blood vessel is squeezed, the vein is punctured by using a butterfly and blood is taken. Once enough blood has been withdrawn a cotton swab is placed over the injection site and the needle is gently removed. Bleeding is stopped by pressing a cotton swab on the wound. Plasma samples were taken between 5 min and 48 h.
Plasma Preparation Cynomolgus
Blood is transferred into a labeled EDTA-K2 Eppendorf tube and the sample is mixed by inverting the tubes several times. Blood is stored at −20° C.

The target in a further data set is Human P-gp (Homo sapiens, UniProt P08183). The data set is described as follows: P-gp transport assay (human). The note with it: efflux ratio. Format: in vitro ADME. The source says: P-Gp Transport Assay (Human and Mouse) (P-Gp Assay)
Chain of Human P-gp (P08183 whole entry): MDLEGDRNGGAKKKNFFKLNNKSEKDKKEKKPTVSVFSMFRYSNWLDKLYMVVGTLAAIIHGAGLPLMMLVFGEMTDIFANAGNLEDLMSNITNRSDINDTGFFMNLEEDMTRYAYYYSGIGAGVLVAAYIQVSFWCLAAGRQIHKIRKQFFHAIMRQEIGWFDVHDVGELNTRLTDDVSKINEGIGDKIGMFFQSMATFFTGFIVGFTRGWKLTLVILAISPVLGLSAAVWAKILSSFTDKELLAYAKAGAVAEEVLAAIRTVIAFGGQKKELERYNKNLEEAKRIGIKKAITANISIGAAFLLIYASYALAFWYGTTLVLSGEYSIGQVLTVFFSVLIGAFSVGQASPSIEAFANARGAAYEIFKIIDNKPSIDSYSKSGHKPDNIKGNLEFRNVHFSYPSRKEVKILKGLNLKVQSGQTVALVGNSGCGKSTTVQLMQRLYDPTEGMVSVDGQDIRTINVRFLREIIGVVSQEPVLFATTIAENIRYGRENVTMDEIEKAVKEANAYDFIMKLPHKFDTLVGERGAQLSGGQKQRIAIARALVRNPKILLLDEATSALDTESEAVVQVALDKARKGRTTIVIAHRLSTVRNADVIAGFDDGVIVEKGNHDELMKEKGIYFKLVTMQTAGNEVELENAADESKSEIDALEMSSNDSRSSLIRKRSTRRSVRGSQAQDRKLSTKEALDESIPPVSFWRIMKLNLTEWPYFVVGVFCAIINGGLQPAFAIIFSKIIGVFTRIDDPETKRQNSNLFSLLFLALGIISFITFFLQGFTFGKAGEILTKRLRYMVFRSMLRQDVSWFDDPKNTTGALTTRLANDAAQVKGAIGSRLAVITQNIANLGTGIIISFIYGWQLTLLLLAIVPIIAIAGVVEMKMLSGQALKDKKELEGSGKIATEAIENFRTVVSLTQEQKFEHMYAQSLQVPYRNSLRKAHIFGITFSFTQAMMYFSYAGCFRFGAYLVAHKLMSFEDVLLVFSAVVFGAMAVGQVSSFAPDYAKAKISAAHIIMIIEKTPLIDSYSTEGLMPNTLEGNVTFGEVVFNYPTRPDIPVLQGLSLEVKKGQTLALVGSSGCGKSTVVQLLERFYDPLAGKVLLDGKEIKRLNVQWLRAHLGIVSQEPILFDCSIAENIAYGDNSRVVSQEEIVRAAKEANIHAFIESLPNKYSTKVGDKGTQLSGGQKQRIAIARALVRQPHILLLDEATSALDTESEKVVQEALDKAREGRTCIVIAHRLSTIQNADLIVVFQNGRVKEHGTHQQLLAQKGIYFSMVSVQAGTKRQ
In the assay of the P-gp efflux ratio ER as described hereinabove, a compound with ER<2.5 is regarded most suitable. In addition, compounds with low hERG channel binding are suitable as well.

Another data set has as its system CSF Aβ40. The data set is described as follows: Rat single dose study, inhibition of CSF Aβ40 in Wistar rats. As to conditions: rat CSF Aβ40, 1 mg/kg, 4 h post dose. In kind it is in vivo. As for the experimental part: Rat Single Dose PK Study (Inhibition of CSF Aβ40 in Wistar Rats)
The rat single dose PK study was described in H. Hilpert et al., J. Med. Chem. 2013, 56, 3980-3995 (dx.doi.org/10.1021/jm400225m) with slight modifications.
(§1) Aβ 40 concentration was determined without solid phase extraction following a modified protocol from Perkin-Elmer with a commercially available antibody against the N-terminal part of rat Aβ (252Q6, Invitrogen cat. No. AMB0062) and an in-house C-terminal specific anti-Aβ40 antibody (BAP-24, Brockhaus M. et al., J. Neuroreport, 1998, 9:1481-1486) bound to acceptor beads (PerkinElmer, Cat. 6772002). 20 μl analyte per well (reconstituted extracts or standard) were loaded to a White Optiplate-96 (Perkin-Elmer, Cat#6005290). Then, a mixture of biotinylated BAP24 antibody (1:2000 diluted at approximately 1 nM final concentration) and antibody 252Q6 bound to AlphaLISA acceptor beads (Perkin-Elmer cat. No. 6772002 (1:100 diluted, 10 ug/mL final concentration) in 1× AlphaLISA buffer (Perkin-Elmer, AL000F) was added. After 1 hour room temperature incubation in the dark, 20 μL of a streptavidin coated donor beads dilution (40 μg/mL) were added and incubated for 30 minutes in the dark. Light emission at 615 nm was recorded using an EnVision AlphaScreen Reader (Perkin-Elmer). Levels of Aβ 40 were calculated as percentage of the baseline samples from non-treated animals.

Data set [2] relates to Aβ40 in brain of wild-type mice. Briefly: Mouse acute in vivo model (inhibition of Aβ40 in brain of wild-type mice). The note with it: 4 h post dose. As for the experimental part:
Mouse Acute In Vivo Model (Inhibition of Aβ40 in Brain of Wild-Type Mice)
Single Dose Efficacy in Mice
The mouse single dose efficacy was measured in brain homogenate from C57Bl/6J wildtype mice after DEA extraction as described in H. Hilpert et al., J. Med. Chem. 2013, 56, 3980-3995 (dx.doi.org/10.1021/jm400225m).
as §1, with “determined after” for “determined without”, “extraction as described above and” for “extraction”, “20 uL” for “20 μL”, “of Aβ40” for “of Aβ 40”
Aβ40 lowering was determined after oral administration in wild-type mice (C57Bl/6J mice, n=3-4) 4 h post dosing. Wild-type mice were used as they have a normal physiological level of APP expression and are thus expected to provide a better physiological model for Aβ-peptide production than APP-transgenic organisms. In vivo efficacy is a key factor for appropriate drug candidates, being more relevant than in vitro activities.

Turning to `Cc1cc(C#N)cnc1C(=O)Nc1ccc(F)c([C@@]2(C)N=C(N)O[C@H](C(F)(F)F)[C@@H]2F)n1` [Example 1, N-(6-((4R,5R,6S)-2-amino-5-fluoro-4-methyl-6-(trifluoromethyl)-5,6-dihydro-4H-1,3-oxazin-4-yl)-5-fluoropyridin-2-yl)-5-cyano-3-methylpicolinamide], in data set [1] (p.o., dose normalized), the “AUC(0-24)/D p.o.” value is 4160 kg·ng·h/mL/mg. The clearance in data set [1] (plasma) stood at 2.1 mL/min/kg. In addition, the bioavailability in data set [1] (plasma, po, read-out: Oral Bioavailability F) was found to be 52%. In addition, the half-life in data set [1] (plasma, po, read-out: t1/2 p.o. (converted)) was 1140 min. At Human P-gp, the “Human P-gp ER” value was determined as 1.7. Further, the “CSF Aβ-lowering 1 mg/kg at 4 h” value in the data set on CSF Aβ40 and in the data set with CSF Aβ40 (listed as example 1) was 80% in each case. The “Brain Aβ-lowering 3 mg/kg” value in data set [2] (single p.o. dose 3 mg/kg) was found to be 58%. In addition, in data set [2] (single p.o. dose 10 mg/kg), the “Brain Aβ-lowering 10 mg/kg” value is reported as 92%.

By clearance is commonly meant the rate of elimination divided by the concentration. As a reminder, the bioavailability is the share of a dose that reaches the circulation, judged against a reference dose that is usually intravenous.
